Reference: ChEMBL document CHEMBL6182920, “The Discovery of C7-Substituted Norbornyl Bisamides as RXFP1 Small Molecule Agonists” (J Med Chem, 2025)
≈ marks a conversion by molar mass, not a printed value.

Assays:
Relaxin receptor 1 [1] = biological target: T1, Relaxin receptor 1 (Mus musculus, UniProt Q6R6I7); test: Agonist activity at mouse RXFP1 stably expressed in HEK293 cells assessed as intracellular cAMP accumulation incubated for 30 mins by HTRF assay; assay type: functional, cell-based
T1 sequence (Q6R6I7 whole entry): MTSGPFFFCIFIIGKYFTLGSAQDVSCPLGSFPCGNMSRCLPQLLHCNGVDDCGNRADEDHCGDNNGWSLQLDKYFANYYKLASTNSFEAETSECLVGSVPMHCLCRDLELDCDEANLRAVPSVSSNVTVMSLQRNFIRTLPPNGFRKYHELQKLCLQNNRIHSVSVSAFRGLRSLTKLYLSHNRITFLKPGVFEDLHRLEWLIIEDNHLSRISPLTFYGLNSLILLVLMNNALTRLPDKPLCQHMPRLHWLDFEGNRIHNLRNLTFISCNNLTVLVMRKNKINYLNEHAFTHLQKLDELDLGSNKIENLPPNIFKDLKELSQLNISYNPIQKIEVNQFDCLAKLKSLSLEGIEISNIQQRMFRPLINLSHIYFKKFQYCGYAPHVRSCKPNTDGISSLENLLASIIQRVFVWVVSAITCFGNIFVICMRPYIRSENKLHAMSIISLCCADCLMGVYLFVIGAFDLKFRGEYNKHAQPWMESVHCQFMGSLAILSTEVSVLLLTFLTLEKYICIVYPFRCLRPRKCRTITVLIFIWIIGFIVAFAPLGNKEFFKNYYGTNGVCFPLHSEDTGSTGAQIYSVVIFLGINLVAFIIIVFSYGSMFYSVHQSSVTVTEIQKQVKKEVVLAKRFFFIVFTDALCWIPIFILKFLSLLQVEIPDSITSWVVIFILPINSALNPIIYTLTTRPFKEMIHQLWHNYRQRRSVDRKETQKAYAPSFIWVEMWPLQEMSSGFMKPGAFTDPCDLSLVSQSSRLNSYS

[2] = Oral bioavailability in CD-1 mouse at 10 mg/kg; assay type: ADME, organism-based; settings: in vivo
Rattus norvegicus [3] = test: Chronotropic effect in isoflurane-anesthetized male naive Sprague-Dawley rat model assessed as effect on heart rate at 0.5 mg/kg/min, iv measured after 60 mins; assay type: functional, organism-based
Rattus norvegicus [4] = test: Chronotropic effect in iv dosed isoflurane-anesthetized male naive Sprague-Dawley rat model assessed as increase in heart rate measured after 60 mins; assay type: functional, organism-based; settings: dose lower […], dose upper 5.0 mg/kg/min
[5] = Microsomal stability in human liver microsomes assessed as compound remaining measured after 30 mins; assay type: ADME, Microsome; settings: read-out: Stability
[6] = Microsomal stability in rat liver microsomes assessed as compound remaining measured after 30 mins; assay type: ADME, Microsome; settings: read-out: Stability
[7] = Microsomal stability in mouse liver microsomes assessed as compound remaining measured after 30 mins; assay type: ADME, Microsome; settings: read-out: Stability
Relaxin receptor 1 [8] = biological target: T1, Relaxin receptor 1; test: Partial agonist activity at mouse RXFP1 expressed in HEK293 cells assessed as intracellular cAMP accumulation incubated for 30 mins by HTRF assay; assay type: functional, cell-based
Relaxin receptor 1 [9] = biological target: T2, Relaxin receptor 1 (Homo sapiens, UniProt Q9HBX9); test: Agonist activity at human RXFP1
T2 sequence (Q9HBX9 whole entry): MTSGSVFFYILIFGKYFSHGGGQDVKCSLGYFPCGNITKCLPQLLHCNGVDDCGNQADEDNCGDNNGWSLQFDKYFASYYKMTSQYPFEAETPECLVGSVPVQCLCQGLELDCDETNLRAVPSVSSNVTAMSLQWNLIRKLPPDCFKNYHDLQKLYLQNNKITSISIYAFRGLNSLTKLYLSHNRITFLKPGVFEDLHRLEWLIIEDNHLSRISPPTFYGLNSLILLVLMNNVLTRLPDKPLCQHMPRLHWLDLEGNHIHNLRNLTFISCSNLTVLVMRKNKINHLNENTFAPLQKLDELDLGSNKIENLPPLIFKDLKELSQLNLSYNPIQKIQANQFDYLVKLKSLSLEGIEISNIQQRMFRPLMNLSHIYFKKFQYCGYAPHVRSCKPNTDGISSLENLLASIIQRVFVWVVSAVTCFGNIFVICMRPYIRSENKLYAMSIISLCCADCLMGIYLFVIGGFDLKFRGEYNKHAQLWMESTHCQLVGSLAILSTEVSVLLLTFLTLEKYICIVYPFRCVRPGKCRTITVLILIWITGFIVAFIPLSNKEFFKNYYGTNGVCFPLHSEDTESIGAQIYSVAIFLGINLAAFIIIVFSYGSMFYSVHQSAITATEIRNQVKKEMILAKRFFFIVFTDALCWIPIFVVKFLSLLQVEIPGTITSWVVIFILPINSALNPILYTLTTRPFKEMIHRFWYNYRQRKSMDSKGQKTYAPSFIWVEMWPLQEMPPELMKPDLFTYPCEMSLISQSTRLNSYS

Relaxin receptor 1 [10] = biological target: T3, Relaxin receptor 1 (Rattus norvegicus, UniProt Q6R6I6); test: Agonist activity at rat RXFP1 stably expressed in HEK293 cells assessed as intracellular cAMP accumulation incubated for 30 mins by HTRF assay; assay type: cell-based
T3 sequence (Q6R6I6 whole entry): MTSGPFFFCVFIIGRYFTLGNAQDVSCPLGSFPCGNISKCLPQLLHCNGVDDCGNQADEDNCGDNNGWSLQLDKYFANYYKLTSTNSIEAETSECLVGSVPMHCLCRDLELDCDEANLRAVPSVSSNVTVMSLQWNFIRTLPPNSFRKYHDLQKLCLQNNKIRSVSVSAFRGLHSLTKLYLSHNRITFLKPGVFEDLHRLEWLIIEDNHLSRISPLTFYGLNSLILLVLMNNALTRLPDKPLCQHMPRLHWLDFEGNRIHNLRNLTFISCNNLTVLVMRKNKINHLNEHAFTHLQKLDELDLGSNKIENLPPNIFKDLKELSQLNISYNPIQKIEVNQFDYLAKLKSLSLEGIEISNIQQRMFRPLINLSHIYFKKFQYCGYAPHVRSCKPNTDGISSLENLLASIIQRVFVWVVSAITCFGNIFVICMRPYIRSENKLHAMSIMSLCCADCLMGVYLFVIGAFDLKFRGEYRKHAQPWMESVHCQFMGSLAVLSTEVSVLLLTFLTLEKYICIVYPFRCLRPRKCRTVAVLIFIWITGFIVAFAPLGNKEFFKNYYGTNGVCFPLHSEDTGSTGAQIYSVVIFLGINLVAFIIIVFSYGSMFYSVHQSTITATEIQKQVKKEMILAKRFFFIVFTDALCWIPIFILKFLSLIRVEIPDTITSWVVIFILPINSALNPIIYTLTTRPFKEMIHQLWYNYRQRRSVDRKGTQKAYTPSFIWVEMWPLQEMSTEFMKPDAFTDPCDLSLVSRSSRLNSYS

[11] = Thermodynamic aqueous solubility of compound in phosphate buffer at pH 7.4 by reversed-phase ultrahigh pressure liquid chromatography; assay type: physicochemical; settings: phosphate buffer, read-out: Therm_solubility

| EC50 (Relaxin receptor 1 [1]) [nM] | bioavailability [2] [%] | remaining at 0.5 h [5] [%] | remaining at 0.5 h [6] [%] | remaining at 0.5 h [7] [%] | EC50 (Relaxin receptor 1 [8]) [nM] | SMILES | also measured |
| --- | --- | --- | --- | --- | --- | --- | --- |
| > 10000 | 29 | – | – | – | – | COc1ccc(-c2cncn2C)cc1C(=O)N[C@H]1[C@@H](C(=O)Nc2ccc(F)c(C(F)(F)F)c2)[C@H]2CC[C@@H]1C2=C(C)C | – |
| – | – | – | – | – | – | CNC(=O)OC(C(=O)O)c1ccc(F)c(-c2ccc(OC)c(C(=O)N[C@H]3[C@@H](C(=O)Nc4ccc(F)c(C(F)(F)F)c4)[C@H]4CC[C@@H]3/C4=C\C3CC3)c2)c1 (stereo in doubt; 39) | Activity (Rattus norvegicus [3]): No effect; Activity (Rattus norvegicus [4]): Dose-dependent-effect |
| 500 | 36 | > 90 | > 90 | > 90 | 500 | COc1ccc(-c2cc(C(=O)O)ccc2F)cc1C(=O)N[C@H]1[C@@H](C(=O)Nc2ccc(F)c(C(F)(F)F)c2)[C@H]2CC[C@@H]1/C2=C\C(F)(F)F | – |
| – | – | – | – | – | – | COc1cc(F)c(F)cc1C(=O)Nc1ccccc1C(=O)Nc1ccc(F)c(C(F)(F)F)c1 | EC50 (Relaxin receptor 1 [9]): 1200 nM |
| 580 | – | > 90 | > 90 | > 90 | 580 | COc1ccc(-c2cc(C(=O)O)ccc2F)cc1C(=O)N[C@H]1[C@@H](C(=O)Nc2ccc(F)c(C(F)(F)F)c2)[C@H]2CC[C@@H]1/C2=C\c1cnoc1 | EC50 (Relaxin receptor 1 [10]): 880 nM; solubility thermodynamic [11]: 15 µg/mL (≈ 22.5 µM) |
